The values below come from PMC10222987 (Viruses, 2023).

Like-named read-outs stand apart in the source and are kept apart here.

Series [1] relates to H1N1pdm09 (A/Osaka/129/2009) WT. The series can be described thus: microbe, parasite or virus in culture. In kind it is cell-based. The conditions noted are these: Influenza A virus, read-out: EC50 Mean.
A further series deals with H1N1pdm09.WT. The conditions noted are these: mouse, in vivo.
The conditions of series [2]: BALB/c, mouse, in vivo; for C24 (plasma concentration at 24 h): sc.
The conditions of series [3]: hamster, in vivo, sc.
The subject of series [4] is H1N1 (rgA/WSN/33) WT. To be noted: cited from earlier work.
Series [5] concerns H3N2 (rgA/Victoria/3/75) WT. To be noted: cited from earlier work.
In series [6] the test system is H1N1 (rgA/WSN/33) WT. To be noted: cited from earlier work. This is another data set of the same source.
Series [7] concerns H3N2 (rgA/Victoria/3/75) WT. The conditions noted are these: cited from earlier work. The source holds these as a separate data set.

Usually EC50 stands for the concentration needed to bring the measured effect to its halfway point. `O=C1c2c(O)c(=O)ccn2N([C@@H]2c3ccccc3SCc3c2ccc(F)c3F)[C@@H]2COCCN12` [baloxavir acid]: the half-maximal effective concentration (EC50) is 0.61 nM in series [1], 0.42 nM in the series on H1N1 (rgA/WSN/33) WT [4] and 1.13 nM in series [5]. Moreover, the Lung virus titer entry with H1N1pdm09.WT is listed as “almost to the LLOQ”. Also, the “C24 of a simulated dose” value in series [2] is listed as 78.3 ng/mL. Also, the “C24 (plasma concentration at 24 h)” value came out at 47.4 ± 4.9 ng/mL in series [2] (20 mg/kg), 70.8 ± 13.9 ng/mL in series [2] (30 mg/kg), 17.3 ± 3.3 ng/mL in series [3] (10 mg/kg) and 45.7 ± 19.7 ng/mL in series [3] (30 mg/kg).
As a reminder, the IC50 is the concentration that gives 50% inhibition. As for `CCC(CC)O[C@@H]1C=C(C(=O)O)C[C@H](N)[C@H]1NC(C)=O` [oseltamivir acid], the values for the IC50 (with H1N1 (rgA/WSN/33) WT [6]; in series [7]) were 0.8 nM and 0.13 nM, respectively.
Consider `CCOC(=O)C1=C[C@@H](OC(CC)CC)[C@H](NC(C)=O)[C@@H](N)C1` [oseltamivir phosphate], for which the “Lung virus titers vs vehicle” value in the series with H1N1pdm09.WT is listed as “statistically lower compared with vehicle”.
